Measured values from US7803930B2, “Antisense modulation of apolipoprotein B-expression” (Isis Pharmaceuticals, Inc., priority 2002, dated 2010).
In the oligonucleotide strings, read from the 5' end, every base follows the letter of its sugar. An asterisk marks phosphorothioate; unmarked linkages are phosphodiester. Other units and linkages are bracketed, terminal groups are in braces. A string of capitals states the bases alone. e = 2'-O-(2-methoxyethyl) (MOE); [5mC] = 5-methylcytosine; d = 2'-deoxy (DNA)

Test system: human apolipoprotein B mRNA
Assay: Inhibition of human apolipoprotein B mRNA levels in HepG2 cells, quantitative real-time PCR
Type: cell-based
Conditions: HepG2 cells treated with 150 nM of compound; averages from two experiments; quantitative real-time PCR
Procedure: The human hepatoblastoma cell line HepG2 was obtained from the American Type Culture Collection (Manassas, Va.). HepG2 cells were routinely cultured in Eagle's MEM supplemented with 10% fetal calf serum, non-essential amino acids, and 1 mM sodium pyruvate (Gibco/Life Technologies, Gaithersburg, Md.). Cells were routinely passaged by trypsinization and dilution when they reached 90% confluence. Cells were seeded into 96-well plates (Falcon-Primaria #3872) at a density of 7000 cells/well for use in RT-PCR analysis.
When cells reached 80% confluency, they were treated with oligonucleotide. For cells grown in 96-well plates, wells were washed once with 200 μL OPTI-MEM™-1 reduced-serum medium (Gibco BRL) and then treated with 130 μL of OPTI-MEM™-1 containing 3.75 μg/mL LIPOFECTIN™ (Gibco BRL) and the desired concentration of oligonucleotide. After 4-7 hours of treatment, the medium was replaced with fresh medium. Cells were harvested 16-24 hours after oligonucleotide treatment.
Quantitation of apolipoprotein B mRNA levels was determined by real-time quantitative PCR using the ABI PRISM™ 7700 Sequence Detection System (PE-Applied Biosystems, Foster City, Calif.) according to manufacturer's instructions. This is a closed-tube, non-gel-based, fluorescence detection system which allows high-throughput quantitation of polymerase chain reaction (PCR) products in real-time. As opposed to standard PCR, in which amplification products are quantitated after the PCR is completed, products in real-time quantitative PCR are quantitated as they accumulate. This is accomplished by including in the PCR reaction an oligonucleotide probe that anneals specifically between the forward and reverse PCR primers, and contains two fluorescent dyes. A reporter dye (e.g., JOE, FAM, or VIC, obtained from either Operon Technologies Inc., Alameda, Calif. or PE-Applied Biosystems, Foster City, Calif.) is attached to the 5′ end of the probe and a quencher dye (e.g., TAMRA, obtained from either Operon Technologies Inc., Alameda, Calif. or PE-Applied Biosystems, Foster City, Calif.) is attached to the 3′ end of the probe. When the probe and dyes are intact, reporter dye emission is quenched by the proximity of the 3′ quencher dye. During amplification, annealing of the probe to the target sequence creates a substrate that can be cleaved by the 5′-exonuclease activity of Taq polymerase. […] With each cycle, additional reporter dye molecules are cleaved from their respective probes, and the fluorescence intensity is monitored at regular intervals by laser optics built into the ABI PRISM™ 7700 Sequence Detection System. In each assay, a series of parallel reactions containing serial dilutions of mRNA from untreated control samples generates a standard curve that is used to quantitate the percent inhibition after antisense oligonucleotide treatment of test samples.
PCR reagents were obtained from PE-Applied Biosystems, Foster City, Calif. RT-PCR reactions were carried out by adding 25 μL PCR cocktail (1× TAQMAN™ buffer A, 5.5 mM MgCl2, 300 μM each of DATP, dCTP and dGTP, 600 μM of dUTP, 100 nM each of forward primer, reverse primer, and probe, 20 Units RNAse inhibitor, 1.25 Units AMPLITAQ GOLD™, and 12.5 Units MuLV reverse transcriptase) to 96 well plates containing 25 μL total RNA solution. The RT reaction was carried out by incubation for 30 minutes at 48° C. Following a 10 minute incubation at 95° C. to activate the AMPLITAQ GOLD™, 40 cycles of a two-step PCR protocol were carried out: 95° C. for 15 seconds (denaturation) followed by 60° C. for 1.5 minutes (annealing/extension).
Gene target quantities obtained by real time RT-PCR are normalized using either the expression level of GAPDH, a gene whose expression is constant, or by quantifying total RNA using RiboGreen™ (Molecular Probes, Inc. Eugene, Oreg.). GAPDH expression is quantified by real time RT-PCR, by being run simultaneously with the target, multiplexing, or separately. […]

| Substance | % INHIB (inhibition of human apolipoprotein B mRNA levels) |
| --- | --- |
| 270985 (antisense eT*eT*e[5mC]*e[5mC]*eT*d[5mC]*dT*dT*d[5mC]*dG*dG*d[5mC]*d[5mC]*d[5mC]*dT*eG*eG*e[5mC]*eG*e[5mC]) [compound 270985] | 75% |
| 270986 (antisense e[5mC]*eT*e[5mC]*e[5mC]*eA*d[5mC]*dT*dG*dG*dA*dA*d[5mC]*dT*d[5mC]*dT*e[5mC]*eA*eG*e[5mC]*e[5mC]) [compound 270986] | 0% |
| 270987 (antisense e[5mC]*e[5mC]*eT*e[5mC]*e[5mC]*dA*dG*d[5mC]*dT*d[5mC]*dA*dA*d[5mC]*d[5mC]*dT*eT*eG*e[5mC]*eA*eG) [compound 270987] | 0% |
| 270988 (antisense eG*eG*eG*eT*eT*dG*dA*dA*dG*d[5mC]*d[5mC]*dA*dT*dA*d[5mC]*eA*e[5mC]*e[5mC]*eT*e[5mC]) [compound 270988] | 6% |
| 270989 (antisense e[5mC]*e[5mC]*eA*eG*e[5mC]*dT*dT*dG*dA*dG*d[5mC]*dT*d[5mC]*dA*dT*eA*e[5mC]*e[5mC]*eT*eG) [compound 270989] | 64% |
| 270990 (antisense e[5mC]*e[5mC]*e[5mC]*eT*e[5mC]*dT*dT*dG*dA*dT*dG*dT*dT*d[5mC]*dA*eG*eG*eA*eT*eG) [compound 270990] | 42% |
| 270991 (antisense eG*eA*eG*e[5mC]*eA*dG*dT*dT*dT*d[5mC]*d[5mC]*dA*dT*dA*d[5mC]*eA*e[5mC]*eG*eG*eT) [compound 270991] | 21% |
| 270992 (antisense e[5mC]*e[5mC]*e[5mC]*eT*eT*d[5mC]*d[5mC]*dT*d[5mC]*dG*dT*d[5mC]*dT*dT*dG*eA*e[5mC]*eG*eG*eT) [compound 270992] | 8% |
| 270993 (antisense eT*eT*eG*eA*eA*dG*d[5mC]*dG*dA*dT*d[5mC]*dA*d[5mC]*dA*d[5mC]*eT*eG*e[5mC]*e[5mC]*e[5mC]) [compound 270993] | 69% |
| 270994 (antisense eG*e[5mC]*e[5mC]*eT*eT*dT*dG*dA*dT*dG*dA*dG*dA*dG*d[5mC]*eA*eA*eG*eT*eG) [compound 270994] | 51% |
| 270995 (antisense eT*e[5mC]*e[5mC]*eT*e[5mC]*dT*dT*dA*dG*d[5mC]*dG*dT*d[5mC]*d[5mC]*dA*eG*eT*eG*eT*eG) [compound 270995] | 40% |
| 270996 (antisense e[5mC]*e[5mC]*eT*e[5mC]*eT*d[5mC]*dA*dG*d[5mC]*dT*d[5mC]*dA*dG*dT*dA*eA*e[5mC]*e[5mC]*eA*eG) [compound 270996] | 0% |
| 270997 (antisense eG*e[5mC]*eA*e[5mC]*eT*dG*dA*dG*dG*d[5mC]*dT*dG*dT*d[5mC]*d[5mC]*eA*e[5mC]*eA*e[5mC]*eT) [compound 270997] | 24% |
| 270998 (antisense e[5mC]*eG*e[5mC]*eT*eG*dA*dT*d[5mC]*d[5mC]*d[5mC]*dT*d[5mC]*dG*d[5mC]*d[5mC]*eA*eT*eG*eT*eT) [compound 270998] | 1% |
| 270999 (antisense eG*eT*eT*eG*eA*d[5mC]*d[5mC]*dG*d[5mC]*dG*dT*dG*dG*d[5mC]*dT*e[5mC]*eA*eG*e[5mC]*eG) [compound 270999] | 76% |
| 271000 (antisense eG*e[5mC]*eA*eG*e[5mC]*dT*d[5mC]*d[5mC]*dT*dG*dG*dG*dT*d[5mC]*d[5mC]*e[5mC]*eT*eG*eT*eA) [compound 271000] | 22% |
| 271001 (antisense e[5mC]*e[5mC]*e[5mC]*eA*eT*dG*dG*dT*dA*dG*dA*dA*dT*dT*dT*eG*eG*eA*e[5mC]*eA) [compound 271001] | 53% |
| 271002 (antisense eA*eA*eT*e[5mC]*eT*d[5mC]*dG*dA*dT*dG*dA*dG*dG*dT*d[5mC]*eA*eG*e[5mC]*eT*eG) [compound 271002] | 48% |
| 271003 (antisense eG*eA*e[5mC]*eA*e[5mC]*d[5mC]*dA*dT*d[5mC]*dA*dG*dG*dA*dA*d[5mC]*eT*eT*eG*eA*e[5mC]) [compound 271003] | 46% |
| 271004 (antisense eG*e[5mC]*eT*e[5mC]*e[5mC]*dT*d[5mC]*dT*d[5mC]*d[5mC]*d[5mC]*dA*dA*dG*dA*eT*eG*e[5mC]*eG*eG) [compound 271004] | 10% |
| 271005 (antisense eG*eG*e[5mC]*eA*e[5mC]*d[5mC]*d[5mC]*dA*dT*d[5mC]*dA*dG*dA*dA*dG*e[5mC]*eA*eG*e[5mC]*eT) [compound 271005] | 32% |
| 271006 (antisense eA*eG*eT*e[5mC]*e[5mC]*dG*dG*dA*dA*dT*dG*dA*dT*dG*dA*eT*eG*e[5mC]*e[5mC]*e[5mC]) [compound 271006] | 42% |
| 271007 (antisense e[5mC]*eT*eG*eA*eG*d[5mC]*dA*dG*d[5mC]*dT*dT*dG*dA*d[5mC]*dT*eG*eG*eT*e[5mC]*eT) [compound 271007] | 26% |
| 271008 (antisense e[5mC]*e[5mC]*e[5mC]*eG*eG*dT*d[5mC]*dA*dG*d[5mC]*dG*dG*dA*dT*dA*eG*eT*eA*eG*eG) [compound 271008] | 37% |
| 271010 (antisense eT*eG*eT*e[5mC]*eA*d[5mC]*dA*dA*d[5mC]*dT*dT*dA*dG*dG*dT*eG*eG*e[5mC]*e[5mC]*e[5mC]) [compound 271010] | 57% |
| 271011 (antisense eG*eT*e[5mC]*eT*eG*dG*d[5mC]*dA*dA*dT*d[5mC]*d[5mC]*d[5mC]*dA*dT*eG*eT*eT*e[5mC]*eT) [compound 271011] | 51% |
| 271012 (antisense e[5mC]*e[5mC]*e[5mC]*eA*e[5mC]*dA*dG*dA*d[5mC]*dT*dT*dG*dA*dA*dG*eT*eG*eG*eA*eG) [compound 271012] | 55% |
| 271013 (antisense eG*eA*eA*e[5mC]*eT*dG*d[5mC]*d[5mC]*d[5mC]*dA*dT*d[5mC]*dA*dA*dT*e[5mC]*eT*eT*eG*eA) [compound 271013] | 19% |
| 271014 (antisense e[5mC]*e[5mC]*e[5mC]*eA*eG*dA*dG*dA*dG*dG*d[5mC]*d[5mC]*dA*dA*dG*e[5mC]*eT*e[5mC]*eT*eG) [compound 271014] | 54% |
| 271015 (antisense eT*eG*eT*eG*eT*dT*d[5mC]*d[5mC]*d[5mC]*dT*dG*dA*dA*dG*d[5mC]*eG*eG*e[5mC]*e[5mC]*eA) [compound 271015] | 43% |
